The test system of assay [1] is serotonin reuptake and norepinephrine reuptake. As to conditions: cited from earlier work; for selectivity for serotonin reuptake inhibition than norepinephrine reuptake inhibition: higher selectivity for serotonin reuptake.
Assay [2] deals with Major depressive disorder (MDD). Briefly: weekly MADRS-s self-assessment of MDD subjects on a pharmacologic antidepressant agent combined with tDCS sessions (Example 2). The following applies: each agent combined with tDCS; Week 6; change in MADRS-s, FIG. 7. It is filed as in vivo, human. The text has this: In this example, a subject completed a MADRS-s questionnaire at baseline (defined as a time preceding initiation of neurostimulation) to determine a starting measurement to be used in an assessment of treatment efficacy. Ideally, baseline measures were made close to the period of time in which the first neurostimulation session began. The subject completed the same MADRS-s questionnaire weekly during a period of ongoing treatment comprising administering of a prescribed pharmacologic antidepressant agent and delivery to the subject of plurality tDCS sessions. […]
Subjects were provided with a tDCS neurostimulation device, instructions of use, and an program capable of being run on a handheld electronic device which provided instructions, recorded responses to various questionnaires completed by the subject, and recorded information regarding the tDCS stimulation sessions completed by the user. Amongst the tDCS stimulation session information recorded was the date of each session completed, the time of day of each completed session, the duration of each completed session, the intensity of electrical stimulation in each session, the latency from the most recently completed session to the previous session.
Subjects completed a MADSR-s assessment at baseline prior to their first tDCS session. […] If the dosage had changed, the subject recorded the extent of the change. […]

As for `CCN(CC)C(=O)C1(c2ccccc2)CC1CN` (stereo not drawn) [Milnacipran], the “potency for norepinephrine reuptake inhibition than serotonin reuptake inhibition” value in assay [1] is recorded as 3 fold. Take `COc1ccc(C(CN(C)C)C2(O)CCCCC2)cc1` (stereo not drawn) [Venlafaxine]: the “effectiveness in improving symptoms of depression compared to fluoxetine” value in assay [2] is recorded as “approaching significance”.

On to `CCN(CC)C(=O)[C@@]1(c2ccccc2)C[C@H]1CN` [Levomilnacipran], for which, in assay [1], the “potency for norepinephrine reuptake inhibition than serotonin reuptake inhibition” value was 2 fold.

`CNCC[C@H](Oc1cccc2ccccc12)c1cccs1` [duloxetine]: the “selectivity for serotonin reuptake inhibition than norepinephrine reuptake inhibition” value in assay [1] is reported as 10 fold. Regarding `CN(C)CC(c1ccc(O)cc1)C1(O)CCCCC1` (stereo not drawn) [desvenlafaxine], the “selectivity for serotonin reuptake inhibition than norepinephrine reuptake inhibition” value in assay [1] is on record as 10 fold.

As for `CN[C@H]1CC[C@@H](c2ccc(Cl)c(Cl)c2)c2ccccc21` [Sertraline], the “effectiveness in improving symptoms of depression compared to fluoxetine” value in assay [2] was “significantly better”.

The values above are taken from US20260077191A1, “COMBINATION THERAPY FOR THE TREATMENT OF DEPRESSION” (Flow Neuroscience, Inc., priority 2022, published 2026).
